One data set concerns P-glycoprotein (MDR1). The experiment in a line: MDCK-MDR1 Permeability Assay. It counts as in vitro ADME, canine. Conditions: dog; for efflux ratio at 120 min: MDCK-MDR1, Papp(B-A)/Papp(A-B); for Papp A→B at 120 min: MDCK-MDR1, apical to basolateral; for Papp A→B at 120 min / Papp B→A at 120 min: 1-30 μM; for Papp B→A at 120 min: MDCK-MDR1, basolateral to apical. The protocol: MDCK-MDR1 cells originate from transfection of Madin Darby canine kidney (MDCK) cells with the MDR1 gene, the gene encoding for the efflux protein, P-glycoprotein. This cell line is ideal for identifying substrates of P-gp, with or without an inhibitor. The cells are seeded on a Multiscreen™ plate to form a confluent monolayer over 4 days prior to the experiment. On day 4, the test compound (1-30 μM concentration) is added to the apical side of the membrane and the transport of the compound across the monolayer is monitored over a 120 minutes time period. To study drug efflux, it is also necessary to investigate transport of the compound from the basolateral compartment to the apical compartment and calculate an efflux ratio.
The permeability coefficient (Papp) is calculated from the following equation: Papp=[(dQ/dt)/C0×A] where dQ/dt is the rate of permeation of the drug across the cells, C0 is the donor compartment concentration at time zero and A is the area of the cell monolayer.
An efflux ratio is calculated from the mean apical to basolateral (A-B) Papp data and basolateral to apical (B-A) Papp data. Efflux Ratio=Papp(B−A)/Papp(A−B)

The test system of the next data set is A375 melanoma cells. The experiment in a line: Antiproliferation assay in A375 cell line by CellTiter Glo. Type of data set: cell-based. The conditions noted are these: Homo sapiens, A-375, 72 hours or 144 hours. How it is done: In vitro anti-proliferation study of test compounds in A375 cell line by CellTiter Glo. The cells were routinely maintained as a monolayer culture in corresponding culture medium, at 37° C. with 5% CO2 in air.
Harvest the exponential growth cells by trypsin-EDTA digestion. Re-suspend the cell pellet in fresh culture medium, and adjust the concentration to needed (the cell density per well was listed in following form). The cell viability is over 98% by Trypan blue staining. Inoculate cells into 96 wells plates according to the plate map (90 μL/well). Incubate the plates at 37° C. and 5% CO2 overnight. The next day, prepare the 10×compound containing medium according to the plate map. Transfer 10 μL of 10×compound containing medium into each well of the assay plates (the final DMSO concentration is 0.5%). Gently mix the medium and incubate at 37° C. and 5% CO2 for another 72 hours or 144 hours.
Prepare the reagent according to the manufacture's instruction. Add 50 μL CellTiter-Glo Reagent in each well. Mix contents for 2 minutes on an orbital shaker to induce cell lysis. Allow the plate to incubate at room temperature for 10 minutes to stabilize luminescent signal. Transfer 100 μL of reaction contents of each well from the clear plates into white walled/white opaque 96-well plates. Record the luminescence on Envision.
Using the luminescence measurements [time zero (T0), control growth (C), and test growth in the presence of drug at the six concentration levels (Ti)], the percentage growth is calculated at each of the drug concentrations levels.
Percentage growth inhibition (GI) is calculated as: GI (%)═[(Ti-T0)/(C-T0)]×100 for concentrations for which Ti>=T0, and GI (%)═[(Ti-T0)/T0]×100 for concentrations for which Ti<T0. Data were analyzed using the XLFit (Excel) tool, fitting to a 4-parameter equation to generate concentration response curves. Concentration of compound that inhibits 50% of control cell growth (GI50) was back-interpolated when y=50% of net growth of DMSO treated control wells using nonlinear regression with the equation: f(x) 205 [fit=(A+((B−A)/(1+((C/x)^))))], where A is the minimum response (Ymin), B is the maximum response (Ymax), C is the inflection point of the curve (Re GI50) and D is the Hill coefficient. Growth inhibition of 50% (GI50) was calculated at the 50% Growth inhibition on the curve. Index values were the sum of Inhibition rate (IR) at each tested compound concentration.
Background: ATP-based viability assays read luminescence as a measure of living cells.

Data set [1] in a line: Caco-2 Permeability Assay. Type of data set: in vitro ADME. Conditions: human; for efflux ratio at 120 min: Caco-2; for Papp A→B at 120 min: Caco-2, apical to basolateral; for Papp A→B at 120 min / Papp B→A at 120 min: 1-30 μM; for Papp B→A at 120 min: Caco-2, basolateral to apical. How it is done:
Caco-2 cells are widely used as an in vitro assay to measure the permeability of a drug compound. The Caco-2 cell line is derived from a human colorectal carcinoma, and when cultured, the cells spontaneously differentiate into monolayers of polarized enterocytes. Caco-2 cells express P-glycoprotein and breast cancer resistance protein, two of the most relevant cell membrane active transporters that affect drug compound's permeability into cells and blood brain barrier.
The cells are seeded on Millipore Millicell plates and form a confluent monolayer over 20 days prior to the experiment. On day 20, the test compound (1-30 μM concentration) is added to the apical side of the membrane and the transport of the compound across the monolayer is monitored over a 120 minutes time period. To study drug efflux, it is also necessary to investigate transport of the compound from the basolateral compartment to the apical compartment.
The permeability coefficient (Papp) is calculated from the following equation: Papp=[(dQ/dt)/C0×A] where dQ/dt is the rate of permeation of the drug across the cells, C0 is the donor compartment concentration at time zero and A is the area of the cell monolayer. C0 is obtained from analysis of the dosing solution at the start experiment.

Another data set has as its system HT-29 colon cancer cells. The experiment in a line: Antiproliferation assay in HT-29 cells by CellTiter Glo. Type of data set: cell-based. The conditions noted are these: Homo sapiens, 72 hours or 144 hours.

For orientation: efflux ratio means the permeability from basolateral to apical divided by that in the opposite direction, in the common usage. The term Papp A→B denotes how fast a substance crosses the layer from the apical side. Low readings indicate slow passage, high ones fast passage. In general, Papp B→A refers to how fast a substance crosses the layer from the basolateral side. The GI50 is the concentration giving 50% growth inhibition.

On to `CCCS(=O)(=O)N(C)c1cccc(Oc2ccc3c(c2)C2=NCCN2C=N3)c1C#N` [Compound 2, N-(2-Cyano-3-((2,3-dihydroimidazo[1,2-c]quinazolin-9-yl)oxy)phenyl)-N-methylpropane-1-sulfonamide], for which, in the data set on P-glycoprotein (MDR1), the efflux ratio at 120 min stood at 2.63, the Papp A→B at 120 min is 190 nm/s and the basolateral-to-apical permeability (Papp B→A) at 120 min stood at 500 nm/s. In addition, the 50% growth inhibitory concentration (GI50) in the data set with A375 melanoma cells was > 1 µM.
`CCCS(=O)(=O)Nc1ccc(F)c(Oc2ccc3c(c2)C2=NCCN2C=N3)c1C#N` [Compound 3, N-(2-Cyano-3-((2,3-dihydroimidazo[1,2-c]quinazolin-9-yl)oxy)-4-fluorophenyl)propane-1-sulfonamide]: in data set [1], the efflux ratio at 120 min was 1.48, the Papp A→B at 120 min is 92.4 nm/s and the Papp B→A at 120 min came out at 137 nm/s. In the data set on P-glycoprotein (MDR1), the efflux ratio at 120 min was 9.85, the apparent permeability from apical to basolateral (Papp A→B) at 120 min is 21.5 nm/s and the Papp B→A at 120 min worked out at 212 nm/s. Also, the GI50 in the data set on A375 melanoma cells was < 0.1 µM.
`CCCS(=O)(=O)Nc1c(F)ccc(Oc2ccc3c(c2)C2=NCCN2C=N3)c1C#N` [Compound 5, N-(2-Cyano-3-((2,3-dihydroimidazo[1,2-c]quinazolin-9-yl)oxy)-6-fluorophenyl)propane-1-sulfonamide]: in the data set on P-glycoprotein (MDR1), the efflux ratio at 120 min came to 1.82, the Papp A→B at 120 min came out at 12.1 nm/s and the Papp B→A at 120 min was found to be 21.9 nm/s. In the data set on A375 melanoma cells, this compound had a GI50 of 0.1 to 1 µM.
Consider `CCCS(=O)(=O)Nc1cccc(Oc2ccc3c(c2)C2=NCCN2C=N3)c1F` [Compound 9, N-(3-((2,3-Dihydroimidazo[1,2-c]quinazolin-9-yl)oxy)-2-fluorophenyl)propane-1-sulfonamide], for which, in the data set with P-glycoprotein (MDR1), the efflux ratio at 120 min stood at 2.47, the Papp A→B at 120 min came to 176 nm/s and the Papp B→A at 120 min came to 434 nm/s. This compound also returned a concentration for 50% growth inhibition (GI50) in the data set on A375 melanoma cells of 0.1 to 1 µM.
On the same counts, the results for `CCCS(=O)(=O)Nc1cccc(Oc2ccc3c(c2)C2=NCCN2C=N3)c1C(F)(F)F` [Compound 11, N-(3-((2,3-Dihydroimidazo[1,2-c]quinazolin-9-yl)oxy)-2-(trifluoromethyl)phenyl)propane-1-sulfonamide] are 1.22, 346 nm/s, 423 nm/s and 0.1 to 1 µM.
`CCCS(=O)(=O)Nc1cccc(Oc2ccc3c(c2)C2=NCCN2C=N3)c1[N+](=O)[O-]` [Compound 12, N-(3-((2,3-Dihydroimidazo[1,2-c]quinazolin-9-yl)oxy)-2-nitrophenyl)propane-1-sulfonamide]: in the data set on P-glycoprotein (MDR1), the efflux ratio at 120 min came to 4.3, the Papp A→B at 120 min came out at 66 nm/s and the Papp B→A at 120 min turned out to be 284 nm/s. Besides, in the data set on A375 melanoma cells, the concentration for 50% growth inhibition (GI50) was < 0.1 µM.
For the compound `N#Cc1c(NS(=O)(=O)c2ccccc2F)cccc1Oc1ccc2c(c1)C1=NCCN1C=N2` [Compound 14, N-(2-Cyano-3-((2,3-dihydroimidazo[1,2-c]quinazolin-9-yl)oxy)phenyl)-2-fluorobenzenesulfonamide], in data set [1], the efflux ratio at 120 min was found to be 2.77, the Papp A→B at 120 min was determined as 63.7 nm/s and the Papp B→A at 120 min stood at 177 nm/s. Besides, in the data set on P-glycoprotein (MDR1), the efflux ratio at 120 min is 2.73, the Papp A→B at 120 min is 30.3 nm/s and the Papp B→A at 120 min was found to be 82.9 nm/s. Also, the GI50 in the data set with A375 melanoma cells is < 0.1 µM.
Take `N#Cc1c(NS(=O)(=O)c2cccs2)cccc1Oc1ccc2c(c1)C1=NCCN1C=N2` [Compound 15, N-(2-Cyano-3-((2,3-dihydroimidazo[1,2-c]quinazolin-9-yl)oxy)phenyl)thiophene-2-sulfonamide]: in data set [1], the efflux ratio at 120 min came out at 2.94, the apical-to-basolateral permeability (Papp A→B) at 120 min came out at 50.8 nm/s and the basolateral-to-apical permeability (Papp B→A) at 120 min was found to be 149 nm/s. In addition, in the data set with P-glycoprotein (MDR1), the efflux ratio at 120 min stood at 1.73, the Papp A→B at 120 min is 31 nm/s and the Papp B→A at 120 min worked out at 53.6 nm/s. In addition, in the data set on A375 melanoma cells, the GI50 lay in the range of 0.1 to 1 µM.
For the compound `CCCS(=O)(=O)Nc1cccc(Oc2ccc3c(c2)C2=NCCCN2C=N3)c1C#N` [Compound 16, N-(2-cyano-3-((3,4-dihydro-2H-pyrimido[1,2-c]quinazolin-10-yl)oxy)phenyl)propane-1-sulfonamide], in the data set with P-glycoprotein (MDR1), the efflux ratio at 120 min is 8.79, the Papp A→B at 120 min is 10.1 nm/s and the Papp B→A at 120 min worked out at 88.9 nm/s. Further, the concentration for 50% growth inhibition (GI50) in the data set with A375 melanoma cells is < 0.1 µM. For the same compound, the concentration for 50% growth inhibition (GI50) with HT-29 colon cancer cells was < 0.1 µM.
In the case of `CCCS(=O)(=O)Nc1ccc(F)c(Oc2ccc3c(c2)C2=NCCCN2C=N3)c1C#N` [Compound 17, N-(2-cyano-3-((3,4-dihydro-2H-pyrimido[1,2-c]quinazolin-10-yl)oxy)-4-fluorophenyl)propane-1-sulfonamide], in the data set with P-glycoprotein (MDR1), the efflux ratio at 120 min came to 13.2, the Papp A→B at 120 min is 7 nm/s and the apparent permeability from basolateral to apical (Papp B→A) at 120 min worked out at 92.8 nm/s. Also, the concentration for 50% growth inhibition (GI50) in the data set with A375 melanoma cells was < 0.1 µM.
As for `CCCS(=O)(=O)Nc1nccc(Oc2ccc3c(c2)C2=NCCCN2C=N3)c1[N+](=O)[O-]` [Compound 23, N-(4-((3,4-Dihydro-2H-pyrimido[1,2-c]quinazolin-10-yl)oxy)-3-nitropyridin-2-yl)propane-1-sulfonamide], the GI50 with A375 melanoma cells and in the data set on HT-29 colon cancer cells was > 1 µM each time.
As for `CCCS(=O)(=O)Nc1nccc(Oc2ccc3c(c2)C2=NCCCN2C=N3)c1Cl` [Compound 26, N-(3-Chloro-4-((3,4-dihydro-2H-pyrimido[1,2-c]quinazolin-10-yl)oxy)pyridin-2-yl)propane-1-sulfonamide], in the data set with P-glycoprotein (MDR1), the efflux ratio at 120 min came to 4.98, the apparent permeability from apical to basolateral (Papp A→B) at 120 min amounted to 39.5 nm/s and the Papp B→A at 120 min was found to be 196 nm/s. Further, in the data set on A375 melanoma cells, the GI50 was < 0.1 µM. Further, the GI50 with HT-29 colon cancer cells was < 0.1 µM.
`O=S(=O)(Nc1cccc(Oc2ccc3c(c2)C2=NCCN2C=N3)c1Cl)N1CC[C@@H](F)C1` [Compound 46, (R)—N-(2-Chloro-3-((2,3-dihydroimidazo[1,2-c]quinazolin-9-yl)oxy)phenyl)-3-fluoropyrrolidine-1-sulfonamide]: in the data set with P-glycoprotein (MDR1), the efflux ratio at 120 min came to 2.79, the Papp A→B at 120 min turned out to be 208 nm/s and the Papp B→A at 120 min was 579 nm/s. For the same compound, in the data set on A375 melanoma cells, the GI50 was < 0.1 µM.
With `CC1(C)CN2C=Nc3ccc(Oc4cccc(NS(=O)(=O)N5CCCC5)c4Cl)cc3C2=N1` [Compound 54, N-(2-Chloro-3-((2,2-dimethyl-2,3-dihydroimidazo[1,2-c]quinazolin-9-yl)oxy)phenyl)pyrrolidine-1-sulfonamide], the GI50 in the data set on A375 melanoma cells was < 0.1 µM.
Consider `CCCS(=O)(=O)Nc1cccc(Oc2ccc3c(c2)C2=NC(C)(C)CN2C=N3)c1Cl` [Compound 55, N-(2-Chloro-3-((2,2-dimethyl-2,3-dihydroimidazo[1,2-c]quinazolin-9-yl)oxy)phenyl)propane-1-sulfonamide], for which the concentration for 50% growth inhibition (GI50) in the data set with A375 melanoma cells is < 0.1 µM.

These data come from US11254680B2, “Cyclic iminopyrimidine derivatives as kinase inhibitors” (ABM Therapeutics Corporation, priority 2017, dated 2022).
